The values that follow come from patent US20070208062A1, “3-(4-(2-DIHYDROISOXAZOL-3-YLPYRIDIN-5-YL)PHENYL)-5-TRIAZOL-1-YLMETHYLOXAZOLIDIN-2-ONE DERIVATIVES AS MAO INHIBITORS FOR THE TREATMENT OF BACTERIAL INFECTIONS” (ASTRAZENECA AB, priority 2004, published 2007).

The structures appear in SMILES notation. Values after ≈ are worked out from the molar mass of the structure shown. Counter-ions that a name gives are not always drawn.

For series [1], the system named is Haemophilus influenzae. In words: MIC, Haemophilus influenzae. The class given is cell-based. To be noted: Mueller-Hinton broth with hemin and NAD, 24 hours, 5×10^4 CFU/well. The method, then: (§1) The following results were obtained on a standard in-vitro test system. The activity is described in terms of the minimum inhibitory concentration (MIC) determined by the agar-dilution technique with an inoculum size of 10^4 CFU/spot. Typically, compounds are active in the range 0.01 to 256 μg/ml.
(§2) Streptococci and enterococci were tested on agar supplemented with 5% defibrinated horse blood, an inoculum of 10^4 CFU/spot and an incubation temperature of 37° C. in an atmosphere of 5% carbon dioxide for 48 hours—blood is required for the growth of some of the test organisms. Fastidious Gram negative organisms were tested in Mueller-Hinton broth, supplemented with hemin and NAD, grown aerobically for 24 hours at 37° C., and with an inoculum of 5×10^4 CFU/well.

Series [2] concerns Staphylococcus aureus MSQS (methicillin sensitive and quinolone sensitive). In words: MIC by agar-dilution, Staphylococcus aureus MSQS. The class given is cell-based. The conditions noted are these: inoculum 10^4 CFU/spot, 37° C., 24 hours. How it is done:
as §1
(§3) Staphylococci were tested on agar, using an inoculum of 10^4 CFU/spot and an incubation temperature of 37° C. for 24 hours—standard test conditions for the expression of methicillin resistance.

Series [3] relates to Streptococcus pneumoniae. Kind of series: MIC, Streptococcus pneumoniae. The class given is cell-based. The conditions noted are these: agar with 5% defibrinated horse blood, 5% carbon dioxide, 48 hours. How it is done: as §1, §2
The subject of series [4] is Staphylococcus aureus MRQR (methicillin resistant and quinolone resistant). Kind of series: MIC by agar-dilution, Staphylococcus aureus MRQR. In kind it is cell-based. To be noted: inoculum 10^4 CFU/spot, 37° C., 24 hours. How it is done: as §1, §3
Series [5] deals with Moraxella catarrhalis. Kind of series: MIC, Moraxella catarrhalis. In kind it is cell-based. To be noted: Mueller-Hinton broth with hemin and NAD, 24 hours, 5×10^4 CFU/well. The method, then: as §1, §2
Series [6] has as its system Linezolid Resistant Streptococcus pneumoniae. Kind of series: MIC, Linezolid Resistant Streptococcus pneumoniae. The conditions noted are these: agar with 5% defibrinated horse blood, 5% carbon dioxide, 48 hours. In kind it is cell-based. The method, then:
as §1, §2

The target of series [7] is T1, MAO-A (Homo sapiens, UniProt P21397).
T1 construct: made in house; host or cells: yeast
T1 sequence (P21397 1-527): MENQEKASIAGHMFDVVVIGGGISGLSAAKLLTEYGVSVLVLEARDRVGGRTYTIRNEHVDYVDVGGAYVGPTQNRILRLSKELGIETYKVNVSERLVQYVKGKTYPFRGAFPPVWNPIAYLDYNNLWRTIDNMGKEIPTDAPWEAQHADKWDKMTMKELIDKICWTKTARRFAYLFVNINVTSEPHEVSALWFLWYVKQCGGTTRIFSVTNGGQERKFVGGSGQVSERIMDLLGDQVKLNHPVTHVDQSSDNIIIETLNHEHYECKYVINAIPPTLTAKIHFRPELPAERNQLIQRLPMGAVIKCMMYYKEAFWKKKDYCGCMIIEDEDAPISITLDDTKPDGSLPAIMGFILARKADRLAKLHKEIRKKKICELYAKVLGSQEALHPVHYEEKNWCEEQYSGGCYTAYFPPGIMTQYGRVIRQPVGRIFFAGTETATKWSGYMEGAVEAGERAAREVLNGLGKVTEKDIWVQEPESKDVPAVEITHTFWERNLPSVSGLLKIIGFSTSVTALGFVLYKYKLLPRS
In words: MAO-A standard in-vitro assay, human liver enzyme expressed in yeast. To be noted: read-out: Ki against MAO-A. The class given is biochemical. The method, then: The activity of the compounds of the invention against MAO-A was tested using a standard in-vitro assay based on human liver enzyme expressed in yeast as described in Biochem. Biophys. Res. Commun. 1991, 181, 1084-1088.

Series [8] deals with Staphylococci, Streptococci, enterococci, fastidious Gram negative organisms. Kind of series: standard in-vitro test system, antibacterial activity (MIC). The conditions noted are these: result in words. The class given is cell-based.
From the text: The pharmaceutically-acceptable compounds of the present invention are useful antibacterial agents having a good spectrum of activity in vitro against standard Gram-positive organisms, which are used to screen for activity against pathogenic bacteria. […] The antibacterial spectrum and potency of a particular compound may be determined in a standard test system.
as §1, §3, §2

In the case of `CC[C@H](C)[C@H](N)C(=O)OCCOC[C@@H]1CC(c2ccc(-c3ccc(N4C[C@H](Cn5ccnn5)OC4=O)cc3F)cn2)=NO1` (as salt: HCl) [Example 17, 2-{[(5S)-3-(5-{2-Fluoro-4-[(5R)-2-oxo-5-(1H-1,2,3-triazol-1-ylmethyl)-1,3-oxazolidin-3-yl]phenyl}pyridin-2-yl)-4,5-dihydroisoxazole-5-yl]methoxy}ethyl L-isoleucinate], the melting point (usually the temperature of the solid-liquid transition) was determined as 119 °C. Compound `CN(C)CC(O)COC[C@@H]1CC(c2ccc(-c3ccc(N4C[C@H](Cn5ccnn5)OC4=O)cc3F)cn2)=NO1` (some centres unmarked) (as salt: hydrochloride) [Example 19] returned a melting point of 110 to 115 °C.

The compound `O=C1OC(Cn2ccnn2)CN1c1ccc(-c2ccc(C3=NO[C@H](COCCN4CCOCC4)C3)nc2)c(F)c1` (stereo in doubt) [Example 10, (5S)-3-[3-Fluoro-4-(6-{(5S)-5-[(2-morpholin-4-ylethoxy)methyl]-4,5-dihydroisoxazole-3-yl}pyridin-3-yl)phenyl]-5-(1H-1,2,3-triazol-1-ylmethyl)-1,3-oxazolidin-2-one] had a melting point of 171 °C. `O=C(O)COC[C@@H]1CC(c2ccc(-c3ccc(N4C[C@H](Cn5ccnn5)OC4=O)cc3F)cn2)=NO1` [Example 3, {[(5S)-3-(5-{2-Fluoro-4-[(5R)-2-oxo-5-(1H-1,2,3-triazol-1-ylmethyl)-1,3-oxazolidin-3-yl]phenyl}pyridin-2-yl)-4,5-dihydroisoxazole-5-yl]methoxy}acetic acid] yielded a melting point of 190 °C. The compound `CNC(=O)COC[C@@H]1CC(c2ccc(-c3ccc(N4C[C@H](Cn5ccnn5)OC4=O)cc3F)cn2)=NO1` [Example 4, 2-{[(5S)-3-(5-{2-Fluoro-4-[(5R)-2-oxo-5-(1H-1,2,3-triazol-1-ylmethyl)-1,3-oxazolidin-3-yl]phenyl}pyridin-2-yl)-4,5-dihydroisoxazole-5-yl]methoxy}-N-methylacetamide] came in with a melting point of 153 to 156 °C. This compound also registered an MIC in series [1] of 8 µg/mL (≈ 15.7 µM). The MIC in [2] was 0.25 µg/mL (≈ 0.491 µM). The compound also came in with an MIC in series [3] of 0.06 µg/mL (≈ 0.118 µM). In addition, the MIC in series [4] was 0.5 µg/mL (≈ 0.981 µM). Also, the MIC in series [5] is 0.5 µg/mL (≈ 0.981 µM). The compound also displayed an MIC in [6] of 1 µg/mL (≈ 1.96 µM). Further, the Ki (as a rule, a dissociation constant, usually derived from enzyme kinetics or from competition with a known ligand) in series [7] was 8 µM. `CN(C)C(=O)COC[C@@H]1CC(c2ccc(-c3ccc(N4C[C@H](Cn5ccnn5)OC4=O)cc3F)cn2)=NO1` [Example 5, 2-{[(5S)-3-(5-{2-Fluoro-4-[(5R)-2-oxo-5-(1H-1,2,3-triazol-1-ylmethyl)-1,3-oxazolidin-3-yl]phenyl}pyridin-2-yl)-4,5-dihydroisoxazole-5-yl]methoxy}-N,N-dimethylacetamide] yielded a melting point of 166 to 168 °C. Compound `CN1CCN(C(=O)COC[C@@H]2CC(c3ccc(-c4ccc(N5C[C@H](Cn6ccnn6)OC5=O)cc4F)cn3)=NO2)CC1` [Example 6, (5R)-3-{3-Fluoro-4-[6-((5S)-5-{[2-(4-methylpiperazin-1-yl)-2-oxoethoxy]methyl}-4,5-dihydroisoxazole-3-yl)pyridin-3-yl]phenyl}-5-(1H-1,23-triazol-1-ylmethyl)-1,3-oxazolidin-2-one] showed a melting point of 165 to 175 °C. In turn, `O=C1O[C@@H](Cn2ccnn2)CN1c1ccc(-c2ccc(C3=NO[C@H](COCCCO)C3)nc2)c(F)c1` [Example 7, (5R)-3-[3-Fluoro-4-(6-{(5S)-5-[(3-hydroxypropoxy)methyl]-4,5-dihydroisoxazole-3-yl}pyridin-3-yl)phenyl]-5-(1H-1,23-triazol-1-ylmethyl)-1,3-oxazolidin-2-one] displayed a melting point of 176 °C. Turning to `O=C1O[C@@H](Cn2ccnn2)CN1c1ccc(-c2ccc(C3=NO[C@H](COCCO)C3)nc2)c(F)c1` [Example 8], the melting point was 162 °C. Turning to `CS(=O)(=O)NCCOC[C@@H]1CC(c2ccc(-c3ccc(N4C[C@H](Cn5ccnn5)OC4=O)cc3F)cn2)=NO1` [Example 13, N-(2-{[(5S)-3-(5-{2-Fluoro-4-[(5R)-2-oxo-5-(1H-1,2,3-triazol-1-ylmethyl)-1,3-oxazolidin-3-yl]phenyl}pyridin-2-yl)-4,5-dihydroisoxazole-5-yl]methoxy}ethyl)methanesulfonamide], the melting point stood at 170 °C.

Consider `CC(=O)NCCOC[C@@H]1CC(c2ccc(-c3ccc(N4C[C@H](Cn5ccnn5)OC4=O)cc3F)cn2)=NO1` [Example 14, N-(2-{[(5S)-3-(5-{2-Fluoro-4-[(5R)-2-oxo-5-(1H-1,2,3-triazol-1-ylmethyl)-1,3-oxazolidin-3-yl]phenyl}pyridin-2-yl)-4,5-dihydroisoxazole-5-yl]methoxy}ethyl)acetamide], for which the melting point was determined as 134 °C. Consider `N#CCOC[C@@H]1CC(c2ccc(-c3ccc(N4C[C@H](Cn5ccnn5)OC4=O)cc3F)cn2)=NO1` [Example 15, {[(5S)-3-(5-{2-Fluoro-4-[(5R)-2-oxo-5-(1H-1,2,3-triazol-1-ylmethyl)-1,3-oxazolidin-3-yl]phenyl}pyridin-2-yl)-4,5-dihydroisoxazole-5-yl]methoxy}acetonitrile], for which the melting point fell in the range of 90 to 115 °C.

With `CC(C)(O)COC[C@@H]1CC(c2ccc(-c3ccc(N4C[C@H](Cn5ccnn5)OC4=O)cc3F)cn2)=NO1` [Example 16], the melting point is 180 to 187 °C. `CN(CCOC[C@@H]1CC(c2ccc(-c3ccc(N4C[C@H](Cn5ccnn5)OC4=O)cc3F)cn2)=NO1)CC(=O)O` [Example 20, N-(2-{[(5S)-3-(5-{2-Fluoro-4-[(5R)-2-oxo-5-(1H-1,2,3-triazol-1-ylmethyl)-1,3-oxazolidin-3-yl]phenyl}pyridin-2-yl)-4,5-dihydroisoxazole-5-yl]methoxy}ethyl)-N-methylglycine] showed a melting point of 135 to 140 °C. Turning to `CC(C)(C)OC(=O)COC[C@@H]1CC(c2ccc(-c3ccc(N4C[C@H](Cn5ccnn5)OC4=O)cc3F)cn2)=NO1` [Pro-drug Example 1, tert-Butyl {[(5S)-3-(5-{2-fluoro-4-[(5R)-2-oxo-5-(1H-1,2,3-triazol-1-ylmethyl)-1,3-oxazolidin-3-yl]phenyl}pyridin-2-yl)-4,5-dihydroisoxazole-5-yl]methoxy}acetate], the melting point is 186 °C. As for `C=CCOC[C@@H]1CC(c2ccc(-c3ccc(N4C[C@H](Cn5ccnn5)OC4=O)cc3F)cn2)=NO1` [compound 2, (5R)-3-[4-(6-{(5S)-5-[(Allyloxy)methyl]-4,5-dihydroisoxazole-3-yl}pyridin-3-yl)-3-fluorophenyl]-5-(1H-1,2,3-triazol-1-ylmethyl)-1,3-oxazolidin-2-one], the melting point was determined as 162 °C. The antibacterial activity entry in series [8] is “have antibacterial activity”. In the case of `[N-]=[N+]=NCCOC[C@@H]1CC(c2ccc(-c3ccc(N4C[C@H](Cn5ccnn5)OC4=O)cc3F)cn2)=NO1` [compound 9], the melting point was found to be 148 °C. For the same compound, in series [8], the antibacterial activity entry is “have antibacterial activity”.
